Key:
[1] = molecular target: T1, AaSiaP (TRAP N-acetylneuraminate substrate-binding protein SiaP) (Aggregatibacter actinomycetemcomitans, UniProt A0A5D0EK58); experiment: microscale thermophoresis; set-up: gene ACT75_01630; mature chain without native signal peptide (replaced by pelB), residual N-terminal Met-Asp; strain 624, WP_005538762.1
[2] = molecular target: T1, AaSiaP (TRAP N-acetylneuraminate substrate-binding protein SiaP); set-up: gene ACT75_01630
[3] = molecular target: T1, AaSiaP (TRAP N-acetylneuraminate substrate-binding protein SiaP); experiment: microscale thermophoresis; also crystal structure ([…] A), DSF, SAXS; set-up: gene ACT75_01630; mature chain without native signal peptide (replaced by pelB), residual N-terminal Met-Asp; strain 624, WP_005538762.1

T1 sequence (A0A5D0EK58 entry or part of it): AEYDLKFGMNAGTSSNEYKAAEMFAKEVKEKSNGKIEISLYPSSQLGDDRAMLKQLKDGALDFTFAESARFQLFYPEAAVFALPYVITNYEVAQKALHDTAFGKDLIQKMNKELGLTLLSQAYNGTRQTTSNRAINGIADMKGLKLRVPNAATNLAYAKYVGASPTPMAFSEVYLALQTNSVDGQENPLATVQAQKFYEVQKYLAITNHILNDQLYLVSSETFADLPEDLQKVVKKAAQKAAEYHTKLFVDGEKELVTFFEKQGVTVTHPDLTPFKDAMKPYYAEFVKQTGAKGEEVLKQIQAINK

SMILES: O=C(CO)N[C@H]1[C@H]([C@H](O)[C@H](O)CO)O[C@@](O)(C(=O)O)C[C@@H]1O [Neu5Gc, N-glycolylneuraminate]
- Kd [1]: 4400 nM

SMILES: CC(=O)O [acetate]
- crystal structure (2.58 A, chains A and B); acetate from the crystallization cond [2]: Acetate makes favorable interactions with residues R127, R147, and N189 on domain II within the binding site of AaSiaP

SMILES: CC(=O)N[C@H]1[C@H]([C@H](O)[C@H](O)CO)O[C@](O)(C(=O)O)C[C@@H]1O [Neu5Ac, N-acetylneuraminate]
- Kd [3]: 430 nM

— publication PMC11550005, “On the function of TRAP substrate-binding proteins: Conformational variation of the sialic acid binding protein SiaP” (The Journal of Biological Chemistry, 2024)
